“Also recorded” adds a separate entry of the source.
How the values were obtained:
[1] = tested on: GRK activity in renal proximal tubule cells; experiment: GRK activity (phosphorylation of rhodopsin) in extracts of renal proximal tubule cells; type: cell-based, human
Excerpt: Human kidneys were obtained as fresh surgical specimens from patients who had unilateral nephrectomy due to renal carcinoma. The patient records of the subjects were reviewed and classified into those with either normal blood pressure (n=9) or essential hypertension (n=14). Subjects with systolic blood pressures less than 140 mm Hg and diastolic blood pressures less than 90 mm Hg were considered normotensive. Subjects with systolic blood pressures equal to or greater than 140 mm Hg or diastolic blood pressures equal to or greater than 90 mm Hg and/or on antihypertensive medications were considered hypertensive. […]
GRK activity was measured according to Benovic, Methods Enzymol. […] The gels were subjected to autoradiography, and the phosphorylated rhodopsin was quantified using both densitometry and radioactive counting of the excised bands at the appropriate size. GRK activity was also measured in the presence or absence of a GRK isoform antibody.

[2] = tested on: D1 receptor / adenylyl cyclase coupling in renal proximal tubule cells; experiment: cAMP accumulation in renal proximal tubule cells; type: cell-based, human; settings: normotensive versus hypertensive subjects
Procedure: Cultures of renal proximal tubule cells from histologically-verified normal kidney sections (5×10^5 cells/well in 24 well plastic plates coated with 0.075% Type I collagen) were incubated at 37° C. in […] and grown in a serum-free medium consisting of a 1:1 mixture of Dulbecco's Modified Eagle's medium and Ham's F12 medium supplemented with selenium (5 ng/ml), insulin (5 μg/ml), transferrin (5 μg/ml), hydrocortisone (36 ng/ml), triiodothyronine (4 pg/ml), and epidermal growth factor (10 ng/ml). When sub-confluent (90-95%), the cells were sub-cultured (passages 6-8) for use in experimental protocols using trypsin-EDTA (0.05%, 0.02%). The culture conditions are conducive for growth of human renal proximal tubules that retain characteristics of renal proximal tubule cells, Sanada, et al., J. Invest. Med. 45:277 A (1997).
The cells were washed twice with Dulbecco's phosphate buffered saline (D-PBS), after which 1 mM 3-isobutyl-1-methyl-xanthine was added to each well. […] Then, the cells were washed twice with D-PBS and frozen at −80° C. and the cells were further lysed with 0.1N HCl. cAMP concentration was measured by radioimmunoassay. […] Protein concentration was measured with the BCA protein assay kit (Pierce Chem. Co., Rockford, Ill.). […]

D1 receptor [3] = experiment: cAMP production in CHO cells transfected with D1 receptor and GRK4γ; type: cell-based
Procedure: The cells were washed twice with Dulbecco's phosphate buffered saline (D-PBS), after which 1 mM 3-isobutyl-1-methyl-xanthine was added to each well. The cells were incubated at 37° C. for 30 minutes with or without drugs: dopamine and the D1-like receptor agonist, fenoldopam, the D1-like receptor antagonist, SCH23390 (Research Biochemicals International, Natick, Mass.), and forskolin (Sigma Chemical Co., St. Louis, Mo.). Then, the cells were washed twice with D-PBS and frozen at −80° C. and the cells were further lysed with 0.1N HCl. cAMP concentration was measured by radioimmunoassay. […] Protein concentration was measured with the BCA protein assay kit (Pierce Chem. Co., Rockford, Ill.).
The rat D1 (rD1) or human D1 (hD1) receptor cDNA was subcloned in the expression vector pPUR (Clontech, Palo Alto, Calif.) or pcDNA3.1/Zeo (Invitrogen, Carlsbad, Calif.), respectively, between EcoRland XbaI sites. The resulting constructs were used to stably transfect CHO cells expressing the pTet-Off regulator plasmid (Clontech, Palo Alto, Calif.) using calcium phosphate. […] GRK4γ and GRK4δcDNAs, obtained from RT/PCR of mRNA from human kidney cortex were subcloned into a pTet-Off response plasmid (pTRE-rD1 or pTRE-hD1 and pTK-Hyg mixed in a 20:1 ratio, respectively) (Clontech, Palo Alto, Calif.).
GRK4δ was used for comparison.

D1 receptor [4] = molecular target: T1, D1 receptor (Homo sapiens, UniProt P21728); experiment: Serine phosphorylation of D1 receptor (immunoprecipitation / anti-phosphoserine immunoblot) in renal proximal tubule cells; type: cell-based; settings: normotensive subjects
T1 construct: endogenous in cells; host or cells: renal proximal tubule cells in culture from normotensive and hypertensive human subjects
Procedure: Proximal tubule cells were incubated with vehicle, fenoldopam, sense, scrambled or antisense propyne/phosphorothioate oligonucleotides (5 nM) as described above. The membranes were lyzed with ice cold lysis buffer (PBS with 1% NP40, 0.5% sodium deoxycholate, 0.1% SDS, 1 mM EDTA, 1 mM EGTA, 1 mM sodium vanadate, 1 mM NaF, 1 mM PMSF, 10 μg/ml aprotinin and 10 μg/ml leupeptin). The lysates were incubated with IgG-purified anti D1 receptor antibody on ice for 1 hr and protein-A agarose for 12 hrs with rocking at 4° C. The proteins separated by SDS-polyacrylamide gel electrophoresis were electrophoretically transferred onto nitrocellulose membranes. The transblot sheets blocked with 5-10% nonfat dry milk in 10 mM Tris-HCl, pH 7.5, 150 mM NaCl, and 0.1% Tween-20 were incubated with diluted affinity-purified polyclonal anti-phosphoserine antibody (Zymed Lab, San Francisco, Calif.); Sanada, et al., supra. In some cases, the cells were labeled with ^32P and immunoprecipitated with anti D1 receptor antibody. The autoradiograms and immunoblots, visualized with ECL system (Amersham, Arlington Heights, Il) were quantified by densitometry. Sanada, et al., supra.

T1 sequence (P21728 whole entry): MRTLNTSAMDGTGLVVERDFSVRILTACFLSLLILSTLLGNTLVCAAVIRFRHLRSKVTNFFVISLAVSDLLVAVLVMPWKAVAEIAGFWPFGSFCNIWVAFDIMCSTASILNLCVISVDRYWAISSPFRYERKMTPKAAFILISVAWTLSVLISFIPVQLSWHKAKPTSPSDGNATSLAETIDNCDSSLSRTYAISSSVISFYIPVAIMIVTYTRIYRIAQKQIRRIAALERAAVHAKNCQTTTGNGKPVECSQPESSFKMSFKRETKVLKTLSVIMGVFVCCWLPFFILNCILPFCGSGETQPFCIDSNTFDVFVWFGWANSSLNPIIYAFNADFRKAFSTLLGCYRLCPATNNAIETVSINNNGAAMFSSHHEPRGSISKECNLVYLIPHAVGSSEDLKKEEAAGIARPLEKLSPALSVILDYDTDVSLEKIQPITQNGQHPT

SMILES: Oc1ccc(C2CNCCc3c2cc(O)c(O)c3Cl)cc1 (centres unmarked) [fenoldopam]
- effect on GRK activity, assessed by the phosphorylation of rhodopsin ([1]; renal proximal tubule cells from hypertensive subjects): increased GRK activity
- effect on GRK activity, assessed by the phosphorylation of rhodopsin ([1]; renal proximal tubule cells from normotensive subjects): had no effect on GRK activity; also recorded: failed to increase GRK activity
- cAMP accumulation [2]: increased cAMP accumulation to a greater extent in renal proximal tubule cells from normotensive than from hypertensive subjects
- selectivity of action on cAMP production (D1 receptor [3]): selective for the D1 receptor
- quantity of serine-phosphorylated D1 receptor (D1 receptor [4]): increased the quantity of serine-phosphorylated D1 receptor

From US9074016B2, “G protein-related kinase mutants in essential hypertension” (priority 1998, dated 2015)
